Test in all cases: stopped-flow CO2 hydrase assay
Assay type in all cases: biochemical

The target of assay [1] is T1, hCA II (Homo sapiens, UniProt P00918).
T1 construct: gene CA2
An excerpt:
stopped-flow CO2 hydrase assay on hCA II

The target of a further assay is T2, hCA I (Homo sapiens, UniProt P00915).
T2 construct: gene CA1; cytosolic isoform
An excerpt:
stopped-flow CO2 hydrase assay on hCA I

Assay [2] has as its target T3, hCA IX (Homo sapiens, UniProt Q16790).
T3 construct: gene CA9; trans-membrane isoform
An excerpt: stopped-flow CO2 hydrase assay on hCA IX

For assay [3], the target named is T4, hCA XII (Homo sapiens, UniProt O43570).
T4 construct: gene CA12; trans-membrane isoform
The source says:
stopped-flow CO2 hydrase assay on hCA XII

In assay [4] the target is T1, hCA II. Conditions: read-out: KI (μM)^a / hCA I.
Assay [5] has as its target T3, hCA IX. The note with it: read-out: KI (μM)^a / hCA I.
Assay [6] deals with T4, hCA XII. The note with it: read-out: KI (μM)^a / hCA I.

Like-named read-outs stand apart in the source and are kept apart here.

T4 sequence (O43570 30-289 limits assumed): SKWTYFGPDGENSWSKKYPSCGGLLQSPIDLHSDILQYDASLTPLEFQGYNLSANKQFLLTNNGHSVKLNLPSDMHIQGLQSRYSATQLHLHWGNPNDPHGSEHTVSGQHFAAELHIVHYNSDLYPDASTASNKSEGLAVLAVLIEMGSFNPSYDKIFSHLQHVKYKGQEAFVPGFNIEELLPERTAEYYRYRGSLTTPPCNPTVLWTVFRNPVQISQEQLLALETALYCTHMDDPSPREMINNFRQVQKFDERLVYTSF
T2 sequence (P00915 2-261): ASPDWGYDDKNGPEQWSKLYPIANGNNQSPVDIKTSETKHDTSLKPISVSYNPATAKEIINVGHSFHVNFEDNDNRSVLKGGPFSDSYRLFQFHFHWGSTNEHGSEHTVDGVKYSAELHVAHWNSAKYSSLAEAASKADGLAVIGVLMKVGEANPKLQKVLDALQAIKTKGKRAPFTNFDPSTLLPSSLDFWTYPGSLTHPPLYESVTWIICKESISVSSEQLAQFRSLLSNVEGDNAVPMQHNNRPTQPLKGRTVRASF

In the case of `O=C(/C=C\Nc1ccccc1C(=O)O)c1ccccc1` [5a], the Ki at hCA II [1] is 39.4 µM; on hCA I, above 100 µM; at hCA IX [2], 10.6 µM; at hCA XII [3] it was 6.4 µM.
In the case of `O=C(/C=C\Nc1ccccc1C(=O)O)c1ccc(F)cc1` [5b], the Ki on hCA II [1] was 24.3 µM; on hCA I it was above 100 µM; on hCA IX [2], 13.2 µM; at hCA XII [3], 4.3 µM.
As to `O=C(/C=C\Nc1ccccc1C(=O)O)c1ccc(Cl)cc1` [5c], the Ki on hCA II [1] was 32.7 µM; on hCA I, above 100 µM; on hCA IX [2], 17.7 µM; at hCA XII [3] it was 12.5 µM.
The matching figures for `O=C(/C=C\Nc1ccccc1C(=O)O)c1ccc([N+](=O)[O-])cc1` [5d]: 26.9 µM, above 100 µM, 14.1 µM and 7.8 µM.
In the same order, the values of `O=C(/C=C\Nc1ccccc1C(=O)O)c1ccc2ccccc2c1` [5e] are 49 µM, above 100 µM, 19.3 µM and 15.7 µM.
In the same order, the values of `O=C(O)c1cccc(NC=CC(=O)c2ccccc2)c1` [5f] are 72.8 µM, above 100 µM, 15.9 µM and 9.5 µM.
With `O=C(O)c1cccc(NC=CC(=O)c2ccc(F)cc2)c1` [5g], the Ki at hCA II [1] was 68.2 µM; on hCA I, above 100 µM; at hCA IX [2], 9.6 µM; on hCA XII [3], 10.3 µM.
In the same order, the values of `O=C(O)c1cccc(NC=CC(=O)c2ccc(Cl)cc2)c1` [5h] are 77.1 µM, above 100 µM, 19.2 µM and 8.6 µM.
Turning to `O=C(O)c1cccc(NC=CC(=O)c2ccc(Br)cc2)c1` [5i], the Ki was 81.4 µM at hCA II [1], above 100 µM on hCA I, 32.5 µM on hCA IX [2] and 13.9 µM at hCA XII [3].
On to `O=C(O)c1cccc(NC=CC(=O)c2ccc([N+](=O)[O-])cc2)c1` [5j], for which the Ki at hCA II [1] was 80.7 µM; on hCA I, above 100 µM; at hCA IX [2], 24.7 µM; at hCA XII [3], 8.9 µM.
In the same order, the values of `O=C(O)c1cccc(NC=CC(=O)c2ccc3ccccc3c2)c1` [5k] are 92.3 µM, above 100 µM, 11.4 µM and 9.7 µM.
On to `O=C(O)c1ccc(NC=CC(=O)c2ccccc2)cc1` [5l], for which the Ki came out at 9.8 µM at hCA II [1], 75.3 µM at hCA I, 1.2 µM on hCA IX [2] and 0.97 µM on hCA XII [3].
In the same order, the values of `O=C(O)c1ccc(NC=CC(=O)c2ccc(F)cc2)cc1` [5m] are 8.7 µM, 68.8 µM, 0.92 µM and 1.1 µM.
As to `O=C(O)c1ccc(NC=CC(=O)c2ccc(Cl)cc2)cc1` [5n], the Ki on hCA II [1] came to 13.5 µM; at hCA I it was 81.5 µM; at hCA IX [2], 3.4 µM; at hCA XII [3], 4.6 µM.
Turning to `O=C(O)c1ccc(NC=CC(=O)c2ccc(Br)cc2)cc1` [5o], the Ki is 15.3 µM at hCA II [1], above 100 µM on hCA I, 5.6 µM on hCA IX [2] and 6.2 µM at hCA XII [3].
The matching figures for `O=C(O)c1ccc(NC=CC(=O)c2ccc([N+](=O)[O-])cc2)cc1` [5p]: 12.6 µM, 95.6 µM, 4.1 µM and 0.85 µM.
The matching figures for `O=C(O)c1ccc(NC=CC(=O)c2ccc3ccccc3c2)cc1` [5q]: 7.4 µM, 79.4 µM, 0.76 µM and 1.5 µM.
For `O=C(O)c1cccc(NCCC(=O)c2ccccc2)c1` [7a, 3/4-((3-oxo-3-phenylpropyl)amino)benzoic acids 7a–b], the Ki at hCA II [1] is 64.3 µM; on hCA I, above 100 µM; at hCA IX [2], 23.7 µM; at hCA XII [3] it was 7.4 µM.
In the same order, the values of `O=C(O)c1ccc(NCCC(=O)c2ccccc2)cc1` [7b, 3/4-((3-oxo-3-phenylpropyl)amino)benzoic acids 7a–b] are 16.7 µM, 63.8 µM, 8.3 µM and 9.1 µM.
As for `O=C(O)CNC(=O)c1ccc(NC=CC(=O)c2ccccc2)cc1` [12a], the Ki at hCA I, on hCA II [4], at hCA IX [5] and at hCA XII [6] was above 100 µM each time.
For `O=C(O)CNC(=O)c1ccc(N/C=C/C(=O)c2ccc(Br)cc2)cc1` [12b], the Ki at hCA I, on hCA II [4], on hCA IX [5] and on hCA XII [6] was above 100 µM throughout.
For the compound `O=C(O)CNC(=O)c1ccc(N/C=C/C(=O)c2ccc3ccccc3c2)cc1` [12c], the Ki at hCA I, on hCA II [4], at hCA IX [5] and at hCA XII [6] was above 100 µM each time.

The record behind these values is PMC9466612, “Enaminone-based carboxylic acids as novel non-classical carbonic anhydrases inhibitors: design, synthesis and in vitro biological assessment” (Journal of Enzyme Inhibition and Medicinal Chemistry, 2022).
